From paper PMC8067314, “Uptake of Vitamins D2, D3, D4, D5, D6, and D7 Solubilized in Mixed Micelles by Human Intestinal Cells, Caco-2, an Enhancing Effect of Lysophosphatidylcholine on the Cellular Uptake, and Estimation of Vitamins D’ Biological Activities” (Nutrients, 2021)

Columns and labels:
rats [1] = system: rats; parameters: method as in PMID 9017001; conditions: cited from earlier work
rats [2] = conditions: line test, vitamins D provided as a crystal; cited from earlier work
dispersed Caco-2 cells = test: Uptake of vitamin D from mixed micelles by dispersed Caco-2 cells; assay type: in vitro ADME, human; conditions: dispersed Caco-2 cells, 2 h
Excerpt: (§1) Since 2001, we have reported that lysophospholipids enhance the uptake of micellar carotenoids in Caco-2 cells. […] In the present study, using the same method, we examined whether the mechanism for the enhancing effect of lysophosphatidylcholine could be adapted to vitamin D, as well. To evaluate the impact of the degree of cell-cell adhesion/cell-matrix adhesion on vitamin D uptake by cells, we prepared in two different ways: i) dispersed Caco-2 cells without cell-cell adhesion/cell-matrix adhesion and ii) Caco-2 cells with insufficient cell-cell adhesion.
(i): The dispersed cells were prepared by trypsin treatment. After collecting the cells in the culture medium, the number of cells was counted and diluted with the medium. The cells were washed two times with FBS-free DMEM and then seeded in culture plate of 24-well for suspension cultures (SC plate; Greiner Bio-One, Frickenhausen, Germany) at a density of 15 × 10^4 cells per well containing the FBS-free DMEM (0.5 mL).
(§2) Subsequent operations are common to the two models of cells. The medium consisting of mixed micellar vitamin D (0.5 mL) was added to adhered cells or dispersed cells in individual wells containing FBS-free DMEM (0.5 mL), resulting in a total medium volume of 1.0 mL/well, and the final start concentrations of mixed micellar components were one-half the initial concentration. The cells were incubated in the same conditions as described above, i.e., in a CO2 incubator at 37 °C for 2 h, and then the cells were washed with 2 mM taurocholate/PBS, followed by two times with PBS. The vitamin D uptake and residual mixed micellar vitamin D were evaluated as the previous subsection, but the filtrate of residual mixed micellar vitamin D was diluted with a 2x-volume of H2O. The cellular protein content was also determined as above.

rats [3] = conditions: cited from earlier work
chicks = conditions: cited from earlier work
[4] = system: Caco-2 cells with insufficient cell-cell adhesion; test: Uptake of vitamin D2 by adherent Caco-2 cells with insufficient cell-cell adhesion; assay type: in vitro ADME, human; conditions: 2-h incubation
Excerpt: as §1
(ii): The cells that had insufficient cell-cell adhesion were prepared by reducing the culture period from 20–22 d for full differentiation to <7 d after the seeding described above.
as §2

C=C1/C(=C\C=C2/CCC[C@]3(C)[C@@H]([C@H](C)CC[C@@H](CC)C(C)C)CC[C@@H]23)C[C@@H](O)C[C@@H]1O [1-OH-vitamin D5]
Activity for increasing the blood concentration of calcium relative to 1,25-di(OH)-vitamin D3 (rats [1]): approximately one-sixth

C=C1CC[C@H](O)C/C1=C/C=C1\CCC[C@]2(C)[C@@H]([C@H](C)/C=C/[C@H](C)C(C)C)CC[C@@H]12 [Vitamin D2]
Anti-rickets activity, comparison of vitamins D (rats [2]): highest activities and were similar | Vitamin-D2 uptake from lysoPC mixed micelles relative to that from NoPC mixed micelles (dispersed Caco-2 cells): approximately one-sixth | Intestinal absorption compared with vitamin D3 (rats [3]): slightly more easily absorbed than vitamin D3 | Intestinal absorption compared with vitamin D3 or D4 (chicks): less absorbed than vitamin D3 | Vitamin D2 uptake, NoPC vs lysoPC mixed micelles ([4]; Caco-2 cells cultured for 3 d): significantly higher by cells cultured for 3 d from NoPC mixed micelles | Vitamin D2 uptake, NoPC vs lysoPC mixed micelles ([4]; Caco-2 cells cultured for 5 d): no difference in the uptake amounts between NoPC mixed micelles and lysoPC mixed micelles | Vitamin D2 uptake, NoPC vs lysoPC mixed micelles ([4]; Caco-2 cells cultured for 7 d): uptake from lysoPC mixed micelles were significantly higher than those from NoPC mixed micelles
